# Legend:
# [1] = tested on: cultured human mast cells (CHMC); assay: CHMC low cell density IgE activation: tryptase assay; type: cell-based; details: low cell density CHMC, IgE activation, tryptase release
# Procedure, shortened: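 CHMC were seeded at 1000–1500 cells/well in MT buffer and incubated 1 hr at 37 °C. They were then stimulated with anti-IgE for 30 min at 37 °C, with unstimulated wells as controls. Released tryptase in the supernatant was measured with a fluorogenic substrate after 30 min at room temperature.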
# [2] = tested on: cultured human mast cells (CHMC); assay: CHMC low cell density ionomycin activation: tryptase assay; type: cell-based; details: low cell density CHMC, tryptase release, 3 point, read-out: LD Tryptase, CHMC, Iono, 3 pt
# [3] = 3 point, read-out: LD Tryptase, CHMC, IgE, 3 pt
# [4] = 8 point, read-out: LD Tryptase, CHMC, IgE, 8 pt
# [5] = Homo sapiens, Mast cell, 3 point, read-out: LD Tryptase, CHMC, IgE, 3 pt
SMILES,"IC50 [1, 3] [µM]","IC50 [1, 4] [µM]",IC50 [2] [µM],"IC50 [1, 5] [µM]","IC50 ([2]; Homo sapiens, Mast cell) [µM]"
"CNC(=O)COc1ccc(Nc2nc(Nc3ccc4ccn(CC(=O)OC)c4c3)ncc2F)cc1Cl [Compound 640, N4-[3-Chloro-4-(N-methylamino)carbonylmethyleneoxyphenyl]-5-fluoro-N2-[1-(methoxycarbonylmethylene)indol-6-yl]-2,4-pyrimidinediamine]",< 10,< 10,> 10,–,–
"COC(=O)Cn1ccc2ccc(Nc3ncc(F)c(Nc4ccc(Cl)c(OC)c4)n3)cc21 [Compound 641, N4-(4-Chloro-3-methoxyphenyl)-5-fluoro-N2-[1-(methoxycarbonylmethylene)indol-6-yl]-2,4-pyrimidinediamine]",< 10,< 10,< 10,–,–
"COC(=O)Cn1ccc2ccc(Nc3ncc(F)c(Nc4ccc5c(c4)OCCO5)n3)cc21 [Compound 642, N4-(3,4-Ethylenedioxyphenyl)-5-fluoro-N2-[1-(methoxycarbonylmethylene)indol-6-yl]-2,4-pyrimidinediamine]",< 10,< 10,> 10,–,–
"COC(=O)Cn1ccc2cc(Nc3ncc(F)c(Nc4ccc5c(c4)NC(=O)C(C)(C)O5)n3)ccc21 [Compound 643, N4-(2,2-Dimethyl-3-oxo-4H-benz[1,4]oxazin-6-yl)-5-fluoro-N2-[1-(methoxycarbonylmethylene)indol-5-yl]-2,4-pyrimidinediamine]",< 10,< 10,> 10,–,–
"CNC(=O)COc1ccc(Nc2nc(Nc3ccc4c(ccn4CC(=O)OC)c3)ncc2F)cc1Cl [Compound 644, N4-[3-Chloro-4-(N-methylamino)carbonylmethyleneoxyphenyl]-5-fluoro-N2-[1-(methoxycarbonylmethylene)indol-5-yl]-2,4-pyrimidinediamine]",< 10,< 10,> 10,–,–
"COC(=O)Cn1ccc2cc(Nc3ncc(F)c(Nc4ccc(OC)c(Cl)c4)n3)ccc21 [Compound 646, N4-(3-Chloro-4-methoxyphenyl)-5-fluoro-N2-[1-(methoxycarbonylmethylene)indol-5-yl]-2,4-pyrimidinediamine]",< 10,< 10,> 10,–,–
"COC(=O)Cn1ccc2cc(Nc3ncc(F)c(Nc4ccc5c(c4)OCCO5)n3)ccc21 [Compound 647, N4-(3,4-Ethylenedioxyphenyl)-5-fluoro-N2-[1-(methoxycarbonylmethylene)indol-5-yl]-2,4-pyrimidinediamine]",< 10,< 10,> 10,–,–
"CNC(=O)Cn1ccc2ccc(Nc3ncc(F)c(Nc4ccc5c(c4)OCCO5)n3)cc21 [Compound 649, N4-(3,4-Ethylenedioxyphenyl)-5-fluoro-N2-[1-(N-methylamino)carbonylmethyleneindol-6-yl]-2,4-pyrimidinediamine]",< 10,< 10,> 10,–,–
COc1ccc(N(C)c2nc(Cl)ncc2F)cn1 [Compound 657],–,–,–,> 10,> 10
CN(c1ccc(Cl)c(C(F)(F)F)c1)c1nc(Cl)ncc1F [Compound 658],–,–,–,> 10,> 10
COc1cc(N(C)c2nc(Cl)ncc2F)ccc1Cl [Compound 659],–,–,–,> 10,> 10
COc1ccc(N(C)c2nc(Cl)ncc2F)cc1Cl [Compound 660],–,–,–,> 10,> 10
"CNC(=O)Cn1ccc2ccc(Nc3ncc(F)c(Nc4ccc(OC(F)(F)F)c(Cl)c4)n3)cc21 [Compound 662, N4-(3-Chloro-4-trifluoromethoxyphenyl)-5-fluoro-N2-[1-(N-methylamino)carbonylmethyleneindol-6-yl]-2,4-pyrimidinediamine]",< 10,< 10,> 10,–,–
"CNC(=O)Cn1ccc2ccc(Nc3ncc(F)c(Nc4ccc(Cl)c(OC)c4)n3)cc21 [Compound 663, N4-(4-Chloro-3-methoxyphenyl)-5-fluoro-N2-[1-(N-methylamino)carbonylmethyleneindol-6-yl]-2,4-pyrimidinediamine]",< 10,–,> 10,–,–
